Assays:
[1] = Stability in simulated gastric and simulated intestinal fluids; format: physicochemical
Experimental: Such study is conducted with the aim of evaluating the stability of the compound (IV) at […] in absence of enzymes of the intestinal bacterial flora.
(§1) The stability of the compound (IV) is compared to that of known reference standards.

[2] = Hydrolysis in rat intestine preserved in different conditions; format: in vitro ADME
Experimental: Such study is conducted with the aim of surveying the stability of the compound (IV) in rat intestine homogenate preserved in different conditions: frozen at […] and at −80° C.
as §1

[3] = Stability in murine intestinal homogenate; format: in vitro ADME, rat; settings: rat intestinal homogenate, reference standard (concentration not given)
Experimental: Such study is conducted with the aim of evaluating the stability of the compound (IV) in intestinal homogenate.
as §1

[4] = Permeability on the Caco2 cellular line; format: in vitro ADME; settings: human, Caco-2; Apical (pH 6.5) → Basolateral (pH 7.4), Caco2; read-out: Papp A→B (nm/sec) Mean ± SD
Experimental: (§2) Such study is conducted with the aim of evaluating the capacity of the molecule to permeate the intestinal epithelium and be absorbed thereby evaluating the Papp (apparent permeability coefficient). The Papp of the compound (IV) is compared to that of the known reference standards.

Caco2 cellular line = experiment: Permeability on the Caco2 cellular line; format: in vitro ADME; settings: A→B, Caco2
Experimental: as §2

Row | Papp A→B [4] [×10⁻⁶ cm/s] | A→B Mean mass balance % (Caco2 cellular line) [%] | Structure (SMILES) | % Residue ([1]; SGF, 30 min incubation) [%] | % Residue ([1]; SGF, 60 min incubation) [%] | % Residue ([1]; SIF, 30 min incubation) [%] | % Residue ([1]; SIF, 60 min incubation) [%] | Stability in rat intestine (residue %) ([2]; fresh homogenate, 15 min) [%] | Stability in rat intestine (residue %) ([2]; fresh homogenate, 30 min) [%] | Stability in rat intestine (residue %) ([2]; fresh homogenate, 60 min) [%] | Stability in rat intestine (residue %) ([2]; homogenate 4° C., 15 min) [%] | Stability in rat intestine (residue %) ([2]; homogenate 4° C., 30 min) [%] | Stability in rat intestine (residue %) ([2]; homogenate 4° C., 60 min) [%] | Stability in rat intestine (residue %) ([2]; intestine −80° C., 15 min) [%] | Stability in rat intestine (residue %) ([2]; intestine −80° C., 30 min) [%] | Stability in rat intestine (residue %) ([2]; intestine −80° C., 60 min) [%] | Residue percentage ([3]; 30 min) [%] | Residue percentage ([3]; 1 hr) [%] | Residue percentage ([3]; 2 hrs) [%] | Residue percentage ([3]; 4 hrs) [%]
1 |  |  | O=C(O)CCCc1ccc(N(CCCl)CCCl)cc1 [Chlorambucil, reference compound] | 92.8 ± 2.1 | 89.8 ± 1.5 | 42.1 ± 0.5 | 13.9 ± 0.3 | 75.2 ± 3.8 | 58.7 ± 2.3 | 28.0 ± 1.5 | 76.5 ± 5.0 | 53.0 ± 13.9 | 25.9 ± 5.3 | 73.0 ± 1.2 | 25.0 ± 6.1 | 6.9 ± 1.4 | 49.5 ± 7.8 | 16.9 ± 2.2 | 1.5 ± 0.1 | 0.20 ± 0.08
2 |  |  | CC[C@H]1OC(=O)[C@H](C)[C@@H](O[C@H]2C[C@@](C)(OC)[C@@H](O)[C@H](C)O2)[C@H](C)[C@@H](O[C@@H]2O[C@H](C)C[C@H](N(C)C)[C@H]2O)[C@](C)(O)C[C@@H](C)C(=O)[C@H](C)[C@@H](O)[C@]1(C)O [Erythromycin, reference compound] | 0.2 ± 0.1 | 0.1 ± 0.1 | 98.1 ± 1.4 | 100.9 ± 0.4 |  |  |  |  |  |  |  |  |  | 83.5 ± 3.6 | 84.7 ± 3.6 | 95.0 ± 11.0 | 97.5 ± 2.8
3 | 0.41 ± 0.21 | 89 | CC[C@]1(O)C[C@@H]2CN(CCc3c([nH]c4ccccc34)[C@@](C(=O)OC)(c3cc4c(cc3OC)N(C)[C@H]3[C@@](O)(C(=O)OC)[C@H](OC(C)=O)[C@]5(CC)C=CCN6CC[C@]43[C@@H]65)C2)C1 [Vinblastine, reference compound] |  |  |  |  |  |  |  |  |  |  |  |  |  |  |  |  | 
